In US9187471B2, “Pyrido [4,3-b] indole and pyrido [3,4-b] indole derivatives and methods of use” (Medivation Technologies, Inc., priority 2010, dated 2015) one finds inhibition data, which are given here for 22 compounds.

For test [1], the target named is T1, human recombinant serotonin (5-Hydroxytryptamine) 5-HT2A receptor (Homo sapiens, UniProt P28223).
T1 construct: expressed in transfected cells; host or cells: CHO-K1
Briefly: Serotonin 5-HT2A radioligand binding ([3H]Ketanserin). To be noted: compound at 0.1 μM; read-out: Inhibition of ligand binding, Serotonin 5-HT2A (percent inhibition of specific binding). The method, then: Compounds of the invention were incubated with 0.5 nM [^3H]Ketanserin for 60 min at 25° C. Non-specific binding was estimated in the presence of 1 μM Mianserin. Receptor proteins were filtered and washed, the filters were then counted to determine [^3H]Ketanserin specifically bound.

Test [2] deals with T2, human recombinant serotonin (5-Hydroxytryptamine) 5-HT6 receptor (Homo sapiens, UniProt P50406).
T2 construct: expressed in transfected cells; host or cells: HeLa
T2 sequence (P50406 whole entry): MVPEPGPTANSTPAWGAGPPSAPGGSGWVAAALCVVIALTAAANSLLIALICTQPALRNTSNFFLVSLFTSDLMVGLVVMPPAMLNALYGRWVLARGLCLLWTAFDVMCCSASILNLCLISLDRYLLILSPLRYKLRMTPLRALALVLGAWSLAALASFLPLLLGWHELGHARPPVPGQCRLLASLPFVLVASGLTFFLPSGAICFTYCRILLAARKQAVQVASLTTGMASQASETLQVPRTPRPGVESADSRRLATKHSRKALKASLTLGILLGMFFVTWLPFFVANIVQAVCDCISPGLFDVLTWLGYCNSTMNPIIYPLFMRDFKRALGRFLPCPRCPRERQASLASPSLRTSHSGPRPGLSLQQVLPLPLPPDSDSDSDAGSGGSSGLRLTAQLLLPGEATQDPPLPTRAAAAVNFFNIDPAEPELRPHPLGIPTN
Kind of test: Serotonin 5-HT6 radioligand binding ([3H]LSD). To be noted: compound at 0.1 μM; read-out: Inhibition of ligand binding, Serotonin 5-HT6 (percent inhibition of specific binding). An excerpt:
Receptor proteins were filtered and washed, the filters were then counted to determine [3H]LSD specifically bound.

Test [3] has as its target T3, human recombinant histamine H1 receptor (Homo sapiens, UniProt P35367).
T3 construct: expressed in transfected cells; host or cells: CHO-K1
Briefly: Histamine H1 radioligand binding ([3H]Pyrilamine). The settings on record: read-out: Histamine H1 Binding (1 μM), percent inhibition of specific binding; compound at 1 μM; 1.2 nM [3H]Pyrilamine. In short, it runs like this: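 Results expressed as percent inhibition of specific [3H]pyrilamine binding, counted on filters after washing. Receptor source: CHO-K1 cells expressing recombinant human H1, in modified Tris-HCl buffer (50 mM, pH 7.4; 2 mM MgCl2, 100 mM NaCl, 250 mM sucrose). 1 μM pyrilamine defined non-specific binding.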

Test [4] concerns the target T4, human recombinant dopamine D2L receptor (Homo sapiens, UniProt P14416).
T4 construct: expressed in transfected cells; host or cells: CHO
Briefly: Dopamine D2L radioligand binding ([3H]Spiperone). To be noted: 0.16 nM [3H]Spiperone; for inhibition at 1 µM: read-out: Dopamine D2L (1 μM), percent inhibition of specific binding, compound at 1 μM. The method, then: Non-specific binding was estimated in the presence of 10 μM Haloperidol. Receptor proteins were filtered and washed, the filters were then counted to determine [^3H]Spiperone specifically bound.

T4 sequence (P14416 whole entry): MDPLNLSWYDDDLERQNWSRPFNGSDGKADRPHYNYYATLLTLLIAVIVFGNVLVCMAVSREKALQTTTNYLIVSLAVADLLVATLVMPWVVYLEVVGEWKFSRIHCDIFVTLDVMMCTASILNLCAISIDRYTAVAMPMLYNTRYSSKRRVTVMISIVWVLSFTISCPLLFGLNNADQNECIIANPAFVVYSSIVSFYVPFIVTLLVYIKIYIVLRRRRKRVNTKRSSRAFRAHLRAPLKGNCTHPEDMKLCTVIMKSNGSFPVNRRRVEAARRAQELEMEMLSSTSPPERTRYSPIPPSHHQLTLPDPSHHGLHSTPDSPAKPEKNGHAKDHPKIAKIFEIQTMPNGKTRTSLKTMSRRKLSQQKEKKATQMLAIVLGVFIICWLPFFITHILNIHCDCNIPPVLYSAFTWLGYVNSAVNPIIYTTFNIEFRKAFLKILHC
T3 sequence (P35367 whole entry): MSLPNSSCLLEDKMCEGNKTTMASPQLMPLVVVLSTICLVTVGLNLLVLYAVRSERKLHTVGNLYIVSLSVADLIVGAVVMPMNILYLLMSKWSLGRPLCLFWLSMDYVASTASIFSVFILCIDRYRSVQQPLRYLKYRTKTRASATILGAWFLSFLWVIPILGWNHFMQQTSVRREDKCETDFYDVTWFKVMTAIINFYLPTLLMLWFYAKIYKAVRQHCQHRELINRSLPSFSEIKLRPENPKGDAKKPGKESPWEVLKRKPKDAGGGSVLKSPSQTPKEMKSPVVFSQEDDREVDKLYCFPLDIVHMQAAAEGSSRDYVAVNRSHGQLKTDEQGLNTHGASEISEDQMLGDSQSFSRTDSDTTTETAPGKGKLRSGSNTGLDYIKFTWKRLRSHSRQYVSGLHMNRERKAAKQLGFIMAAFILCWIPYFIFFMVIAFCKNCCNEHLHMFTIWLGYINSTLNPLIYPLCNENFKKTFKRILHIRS
T1 sequence (P28223 whole entry): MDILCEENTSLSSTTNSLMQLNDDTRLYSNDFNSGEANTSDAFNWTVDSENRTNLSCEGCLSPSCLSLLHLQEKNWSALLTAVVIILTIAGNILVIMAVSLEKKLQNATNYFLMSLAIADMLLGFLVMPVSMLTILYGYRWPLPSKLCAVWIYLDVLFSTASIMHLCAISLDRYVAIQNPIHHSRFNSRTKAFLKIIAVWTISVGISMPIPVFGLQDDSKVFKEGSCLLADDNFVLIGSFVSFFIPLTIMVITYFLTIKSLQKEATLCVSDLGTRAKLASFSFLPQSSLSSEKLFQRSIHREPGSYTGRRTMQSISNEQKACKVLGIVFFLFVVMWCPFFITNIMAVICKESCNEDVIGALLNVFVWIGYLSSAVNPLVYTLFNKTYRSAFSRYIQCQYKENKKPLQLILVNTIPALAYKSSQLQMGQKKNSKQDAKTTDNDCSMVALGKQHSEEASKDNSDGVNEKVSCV

As for `Cc1ccc2c(c1)c1c(n2-c2cccc(-c3cc4ccccc4s3)c2)CCN(C)C1` [Compound 51, 5-(3-(benzo[b]thiophen-2-yl)phenyl)-2,8-dimethyl-2,3,4,5-tetrahydro-1H-pyrido[4,3-b]indole], the figures for the inhibition at 0.1 µM in test [1] and in test [2] were 86% and 15%, respectively. Also, the inhibition at 1 µM in test [3] is 36%; in test [4] it was 3%.

As for `Cc1ccc2c(c1)c1c(n2-c2ccc(-c3cncc4ccccc34)cn2)CCN(C)C1` [Compound No. 135, 5-(5-(isoquinolin-4-yl)pyridin-2-yl)-2,8-dimethyl-2,3,4,5-tetrahydro-1H-pyrido[4,3-b]indole], the inhibition at 0.1 µM in test [1] is 72%; in test [2], 6%. The inhibition at 1 µM in test [3] is 10%; in test [4], 12%.

For `Cc1ccc2c(c1)c1c(n2-c2ccc3nc(C)ccc3c2)CCN(C)C1` [Compound No. 157, 2,8-dimethyl-5-(2-methyl-quinolin-6-yl)-2,3,4,5-tetrahydro-1H-pyrido[4,3-b]indole], the inhibition at 0.1 µM in test [1] was 88%; in test [2], 22%; in test [4] (read-out: Dopamine D2L (0.1 μM), percent inhibition of specific binding, compound at 0.1 μM) it was -6%. The inhibition at 1 µM in test [3] is -17%.

In the case of `Cc1ccc2c(c1)c1c(n2-c2ccc3cnccc3c2)CCN(C)C1` [Compound 38], the inhibition at 0.1 µM in test [1] is 84%; in test [2], 73%. The figures for the inhibition at 1 µM in test [3] and in test [4] were -4% and 53%, respectively.

Take `CNC(=O)c1ccc(-c2ccccc2-n2c3c(c4cc(C)ccc42)CN(C)CC3)cc1` [Compound No. 72, 2′-(2,8-dimethyl-3,4-dihydro-1H-pyrido[4,3-b]indol-5(2H)-yl)-N-methylbiphenyl-4-carboxamide]: the inhibition at 0.1 µM in test [1] was 35%; in test [2], 3%. Besides, the inhibition at 1 µM in test [3] amounted to 18%; in test [4] it was 16%.

In the case of `Cc1ccc2c(c1)c1c(n2-c2ccc(-c3ccc(S(N)(=O)=O)cc3)cn2)CCN(C)C1` [Compound No. 145, 4-(6-(2,8-dimethyl-3,4-dihydro-1H-pyrido[4,3-b]indol-5(2H)-yl)pyridin-3-yl)benzenesulfonamide], the inhibition at 0.1 µM is 82% in test [1] and -11% in test [2]. For the same compound, the results for the inhibition at 1 µM in test [3] and in test [4] were 17% and 8%, respectively.

As for `CC(=O)Nc1ccc(-c2ccccc2-n2c3c(c4cc(C)ccc42)CN(C)CC3)cn1` [Compound No. 83, N-(5-(2-(2,8-dimethyl-3,4-dihydro-1H-pyrido[4,3-b]indol-5(2H)-yl)phenyl)pyridin-2-yl)acetamide], the values for the inhibition at 0.1 µM in test [1] and in test [2] were 41% and 3%, respectively. Besides, the values for the inhibition at 1 µM in test [3] and in test [4] were 22% and 15%, respectively.

For `Cc1ccc2c(c1)c1c(n2-c2cccc(-c3ccnn3C)c2)CCN(C)C1` [Compound No. 66, 2,8-dimethyl-5-(3-(1-methyl-1H-pyrazol-5-yl)phenyl)-2,3,4,5-tetrahydro-1H-pyrido[4,3-b]indole], the inhibition at 0.1 µM stood at 90% in test [1] and 30% in test [2]. The values for the inhibition at 1 µM in test [3] and in test [4] were 43% and 24%, respectively.

For the compound `Cc1ccc2c(c1)c1c(n2-c2ccc(-c3ccncc3)cn2)CCN(C)C1` [Compound No. 132, 5-(3,4′-bipyridin-6-yl)-2,8-dimethyl-2,3,4,5-tetrahydro-1H-pyrido[4,3-b]indole], the values for the inhibition at 0.1 µM in test [1] and in test [2] were 83% and 2%, respectively. The inhibition at 1 µM in test [3] was 3%; in test [4], 18%.

As for `Cc1csc(-c2ccc(-n3c4c(c5cc(C)ccc53)CN(C)CC4)nc2)c1` [Compound No. 144, 2,8-dimethyl-5-(5-(4-methylthiophen-2-yl)pyridin-2-yl)-2,3,4,5-tetrahydro-1H-pyrido[4,3-b]indole], the results for the inhibition at 0.1 µM in test [1] and in test [2] were 103% and 13%, respectively. The inhibition at 1 µM is 11% in test [3] and 5% in test [4].

Take `Cc1ccc2c(c1)c1c(n2-c2cccc(-c3cn[nH]c3)c2)CCN(C)C1` [Compound No. 70, 5-(3-(1H-pyrazol-4-yl)phenyl)-2,8-dimethyl-2,3,4,5-tetrahydro-1H-pyrido[4,3-b]indole]: the inhibition at 0.1 µM in test [1] stood at 98%; in test [2], 0%. Moreover, the inhibition at 1 µM in test [3] was 8%; in test [4] it was 15%.

Take `Cc1ccc2c(c1)c1c(n2-c2cccc(-c3sccc3C)c2)CCN(C)C1` [Compound 43, 2,8-dimethyl-5-(3-(3-methylthiophen-2-yl)phenyl)-2,3,4,5-tetrahydro-1H-pyrido[4,3-b]indole]: the inhibition at 0.1 µM in test [1] was 102%; in test [2], 28%. Also, the inhibition at 1 µM in test [3] and in test [4] was 26% throughout.

`Cc1ccc2c(c1)c1c(n2-c2cccc(-c3cnn(C)c3)c2)CCN(C)C1` [Compound 46, 2,8-dimethyl-5-(3-(1-methyl-1H-pyrazol-4-yl)phenyl)-2,3,4,5-tetrahydro-1H-pyrido[4,3-b]indole]: the inhibition at 0.1 µM in test [1] is 84%; in test [2], 14%. Moreover, the inhibition at 1 µM in test [3] came out at 19%; in test [4], 20%.

With `Cc1ccc2c(c1)c1c(n2-c2ccccc2-c2c(C)noc2C)CCN(C)C1` [Compound No. 82, 4-(2-(2,8-dimethyl-3,4-dihydro-1H-pyrido[4,3-b]indol-5(2H)-yl)phenyl)-3,5-dimethylisoxazole], the values for the inhibition at 0.1 µM in test [1] and in test [2] were 73% and 14%, respectively. Besides, the inhibition at 1 µM in test [3] was 18%; in test [4], 9%.

For the compound `Cc1ccc2c(c1)c1c(n2-c2cccc(-c3c(C)noc3C)c2)CCN(C)C1` [Compound No. 65, 4-(3-(2,8-dimethyl-3,4-dihydro-1H-pyrido[4,3-b]indol-5(2H)-yl)phenyl)-3,5-dimethylisoxazole], the inhibition at 0.1 µM in test [1] is 85%; in test [2] it was 38%. Also, the inhibition at 1 µM is 31% in test [3] and 29% in test [4].

On to `Cc1ccc2c(c1)c1c(n2-c2ccc(-c3cccnc3)cn2)CCN(C)C1` [Compound No. 133, 5-(3,3′-bipyridin-6-yl)-2,8-dimethyl-2,3,4,5-tetrahydro-1H-pyrido[4,3-b]indole], for which the inhibition at 0.1 µM in test [1] came to 86%; in test [2], 10%. For the same compound, the inhibition at 1 µM in test [3] turned out to be 6%; in test [4], 11%.

Take `Cc1ccc2c(c1)c1c(n2-c2cccc(-c3cnc(N(C)C)nc3)c2)CCN(C)C1` [Compound 42, 5-(3-(2,8-dimethyl-3,4-dihydro-1H-pyrido[4,3-b]indol-5(2H)-yl)phenyl)-N,N-dimethylpyrimidin-2-amine]: the inhibition at 0.1 µM in test [1] turned out to be 62%; in test [2], 17%. Besides, the inhibition at 1 µM in test [3] is 0%; in test [4], 17%.

Turning to `CC(=O)Nc1ccc(-c2cccc(-n3c4c(c5cc(C)ccc53)CN(C)CC4)c2)cn1` [Compound 45, N-(5-(3-(2,8-dimethyl-3,4-dihydro-1H-pyrido[4,3-b]indol-5(2H)-yl)phenyl)pyridin-2-yl)acetamide], the inhibition at 0.1 µM in test [1] came out at 71%; in test [2], 6%. Besides, the figures for the inhibition at 1 µM in test [3] and in test [4] were 8% and 20%, respectively.

Turning to `Cc1ccc2c(c1)c1c(n2-c2ccc(-c3cccc4ccccc34)cn2)CCN(C)C1` [Compound No. 141, 2,8-dimethyl-5-(5-(naphthalen-1-yl)pyridin-2-yl)-2,3,4,5-tetrahydro-1H-pyrido[4,3-b]indole], the figures for the inhibition at 0.1 µM in test [1] and in test [2] were 61% and 0%, respectively. In addition, the values for the inhibition at 1 µM in test [3] and in test [4] were 11% and 15%, respectively.

`Cc1ccc2c(c1)c1c(n2-c2cccc(-c3ccc(O)nc3)c2)CCN(C)C1` [Compound 52, 5-(3-(2,8-dimethyl-3,4-dihydro-1H-pyrido[4,3-b]indol-5(2H)-yl)phenyl)pyridin-2-ol]: the inhibition at 0.1 µM came out at 76% in test [1] and 17% in test [2]. The inhibition at 1 µM in test [3] was determined as 14%; in test [4], 21%.

On to `Cc1ccc2c(c1)c1c(n2-c2cscc2-c2c(C)noc2C)CCN(C)C1` [Compound 62], for which the results for the inhibition at 0.1 µM in test [1] and in test [2] were 68% and 28%, respectively. Moreover, the inhibition at 1 µM amounted to 27% in test [3] and 16% in test [4].

For `Cc1ccc2c(c1)c1c(n2-c2cccc3ccncc23)CCN(C)C1` [Compound 58, 5-(isoquinolin-8-yl)-2,8-dimethyl-2,3,4,5-tetrahydro-1H-pyrido[4,3-b]indole], the values for the inhibition at 0.1 µM in test [1] and in test [2] were 70% and 21%, respectively. Moreover, the inhibition at 1 µM in test [3] came out at 31%; in test [4], 11%.
